The results in this text go back to patent US10316017B2, “COT modulators and methods of use thereof” (Gilead Sciences, Inc., priority 2015, dated 2019).

The test system of test [1] is TNFα production in LPS-stimulated human monocytes. Put plainly: Cot Monocyte TNFα Cell Based Assay. The conditions noted are these: Homo sapiens, Monocyte, LPS-stimulated human monocytes, TNFα TR-FRET; read-out: EC50 TNF. In outline:
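TR-FRET read-out of total secreted TNFα, normalized as % control (unstimulated = 0%, LPS-stimulated = 100%). Cells (5,000/well) were exposed to compound 1 h at 37 °C, then to 50 pg/ml LPS for a further 4 h.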

In test [2] the target is T1, human Cot catalytic domain (30-397 amino acids) (Homo sapiens, UniProt P41279).
T1 construct: Purified recombinant human Cot catalytic domain (30-397 amino acids) was purchased from Cama Biosciences; purchased Cama Biosciences (so in the source)
Put plainly: High Throughput Cot Biochemical Assay (KinEASE TR-FRET). The conditions noted are these: Cot KinEASE TR-FRET, 400 μM ATP; read-out: IC50 HTRF. In outline: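 TR-FRET readout: Eu-labeled phospho-specific antibody binds XL665-tagged STK3 peptide after phosphorylation by Cot (aa 30-397, 5 nM). Conditions: 400 μM ATP, 1 μM peptide, MOPS pH 7.0 buffer with MgOAc, DTT, BSA, NP-40, glycerol; 0.1% DMSO.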
(In TR-FRET formats the signal depends on donor and acceptor labels being close together.)

T1 sequence (P41279 30-397): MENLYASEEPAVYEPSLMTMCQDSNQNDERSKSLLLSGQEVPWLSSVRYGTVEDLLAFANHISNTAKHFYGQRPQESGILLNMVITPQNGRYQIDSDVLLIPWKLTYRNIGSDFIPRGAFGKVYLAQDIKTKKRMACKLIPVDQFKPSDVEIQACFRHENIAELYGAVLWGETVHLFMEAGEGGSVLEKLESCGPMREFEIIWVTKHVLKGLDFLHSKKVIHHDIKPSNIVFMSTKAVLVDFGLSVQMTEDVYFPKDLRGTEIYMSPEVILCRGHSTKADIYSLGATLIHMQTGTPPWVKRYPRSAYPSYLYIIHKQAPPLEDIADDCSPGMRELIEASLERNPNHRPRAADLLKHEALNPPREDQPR

A word on the EC50: it is the concentration needed to bring the measured effect to its halfway point. A word on the IC50: it is the concentration needed to halve the response being measured. For the molecule `Cc1c([C@H](Nc2cc(Cl)c3ncc(C#N)c(NCC(C)(C)C)c3c2)c2cn(C3(C(F)(F)F)CC3)nn2)cccc1-n1ccnn1` [Example 1063, (S)-8-chloro-6-(((2-methyl-3-(1H-1,2,3-triazol-1-yl)phenyl)(1-(1-(trifluoromethyl)cyclopropyl)-1H-1,2,3-triazol-4-yl)methyl)amino)-4-(neopentylamino)quinoline-3-carbonitrile], the EC50 in test [1] amounted to 73 nM. The IC50 in test [2] is 6 nM.

Turning to `CC(C)(C)CNc1c(C#N)cnc2c(C#N)cc(N[C@@H](c3ccccc3)c3cn(C4(C(F)F)CC4)nn3)cc12` [Example 1064, (S)-6-(((1-(1-(difluoromethyl)cyclopropyl)-1H-1,2,3-triazol-4-yl)(phenyl)methyl)amino)-4-(neopentylamino)quinoline-3,8-dicarbonitrile], the EC50 in test [1] came to 103 nM. In addition, the IC50 in test [2] came to 12 nM.

Take `CC(C)(C)CNc1c(C#N)cnc2c(C#N)cc(N[C@@H](c3ccccc3)c3cn(C4(C(F)(F)F)CC4)nn3)cc12` [Example 1065, (S)-4-(neopentylamino)-6-((phenyl(1-(1-(trifluoromethyl)cyclopropyl)-1H-1,2,3-triazol-4-yl)methyl)amino)quinoline-3,8-dicarbonitrile]: in test [1], the EC50 stood at 237 nM. In test [2], the IC50 turned out to be 22 nM.

In the case of `Cc1ccccc1[C@H](Nc1cc(C#N)c2ncc(C#N)c(NCC(C)(C)C)c2c1)c1cn(C2(C(F)F)CC2)nn1` [Example 1066, (S)-6-(((1-(1-(difluoromethyl)cyclopropyl)-1H-1,2,3-triazol-4-yl)(o-tolyl)methyl)amino)-4-(neopentylamino)quinoline-3,8-dicarbonitrile], in test [1], the EC50 was determined as 85 nM. In addition, in test [2], the IC50 stood at 10 nM.

On to `Cc1ccccc1[C@H](Nc1cc(C#N)c2ncc(C#N)c(NCC(C)(C)C)c2c1)c1cn(C2(C(F)(F)F)CC2)nn1` [Example 1067, (S)-4-(neopentylamino)-6-((o-tolyl(1-(1-(trifluoromethyl)cyclopropyl)-1H-1,2,3-triazol-4-yl)methyl)amino)quinoline-3,8-dicarbonitrile], for which the EC50 in test [1] came out at 213 nM. Further, the IC50 in test [2] amounted to 17 nM.

Consider `Cc1c([C@H](Nc2cc(C#N)c3ncc(C#N)c(NCC(C)(C)C)c3c2)c2cn(C3(C(F)(F)F)CC3)nn2)cccc1-n1ccnn1` [Example 1068, (S)-6-(((2-methyl-3-(1H-1,2,3-triazol-1-yl)phenyl)(1-(1-(trifluoromethyl)cyclopropyl)-1H-1,2,3-triazol-4-yl)methyl)amino)-4-(neopentylamino)quinoline-3,8-dicarbonitrile], for which the EC50 in test [1] was 58 nM. In addition, the IC50 in test [2] came out at 3 nM.

For the molecule `Cc1c([C@H](Nc2cc(Cl)c3ncc(C#N)c(NCC(C)(C)C)c3c2)c2cn(C3(C(F)F)CC3)nn2)cccc1-n1ccnc1` [Example 1069, (S)-6-(((3-(1H-imidazol-1-yl)-2-methylphenyl)(1-(1-(difluoromethyl)cyclopropyl)-1H-1,2,3-triazol-4-yl)methyl)amino)-8-chloro-4-(neopentylamino)quinoline-3-carbonitrile], the EC50 in test [1] was 54 nM. The IC50 in test [2] was determined as 2 nM.

For the molecule `Cc1c([C@H](Nc2cc(Cl)c3ncc(C#N)c(NCC(C)(C)C)c3c2)c2cn(C3(C(F)F)CC3)nn2)cccc1-n1cnnc1` [Example 1070, (S)-8-chloro-6-(((1-(1-(difluoromethyl)cyclopropyl)-1H-1,2,3-triazol-4-yl)(2-methyl-3-(4H-1,2,4-triazol-4-yl)phenyl)methyl)amino)-4-(neopentylamino)quinoline-3-carbonitrile], the EC50 in test [1] is 272 nM. Moreover, the IC50 in test [2] is 2 nM.

Consider `Cc1c([C@H](Nc2cc(Cl)c3ncc(C#N)c(NCC(C)(C)C)c3c2)c2cn(C3(C(F)(F)F)CC3)nn2)cccc1-n1cnnc1` [Example 1071, (S)-8-chloro-6-(((2-methyl-3-(4H-1,2,4-triazol-4-yl)phenyl)(1-(1-(trifluoromethyl)cyclopropyl)-1H-1,2,3-triazol-4-yl)methyl)amino)-4-(neopentylamino)quinoline-3-carbonitrile], for which the EC50 in test [1] worked out at 215 nM. The IC50 in test [2] is 3 nM.

Take `Cc1c([C@H](Nc2cc(C#N)c3ncc(C#N)c(NCC(C)(C)C)c3c2)c2cn(C3(C(F)(F)F)CC3)nn2)cccc1-n1cnnc1` [Example 1072, (S)-6-(((2-methyl-3-(4H-1,2,4-triazol-4-yl)phenyl)(1-(1-(trifluoromethyl)cyclopropyl)-1H-1,2,3-triazol-4-yl)methyl)amino)-4-(neopentylamino)quinoline-3,8-dicarbonitrile]: the EC50 in test [1] was at least 1000 nM. Also, the IC50 in test [2] turned out to be 3 nM.

For `Cc1c([C@H](Nc2cc(C#N)c3ncc(C#N)c(NCC(C)(C)C)c3c2)c2cn(C3(C(F)F)CC3)nn2)cccc1-n1cnnc1` [Example 1073, (S)-6-(((1-(1-(difluoromethyl)cyclopropyl)-1H-1,2,3-triazol-4-yl)(2-methyl-3-(4H-1,2,4-triazol-4-yl)phenyl)methyl)amino)-4-(neopentylamino)quinoline-3,8-dicarbonitrile], the EC50 in test [1] was at least 1000 nM. Besides, the IC50 in test [2] stood at 1 nM.

Take `CC(C)(C)CNc1c(C#N)cnc2c(Cl)cc(N[C@H](c3cn(C4(C(F)(F)F)CC4)nn3)c3cccc(C#N)c3Cl)cc12` [Example 1074, (S)-8-chloro-6-(((2-chloro-3-cyanophenyl)(1-(1-(trifluoromethyl)cyclopropyl)-1H-1,2,3-triazol-4-yl)methyl)amino)-4-(neopentylamino)quinoline-3-carbonitrile]: in test [1], the EC50 stood at 435 nM. In addition, the IC50 in test [2] turned out to be 48 nM.

With `CC(C)(C)CNc1c(C#N)cnc2c(Cl)cc(N[C@H](c3cn(C4(C(F)F)CC4)nn3)c3cccc(C#N)c3Cl)cc12` [Example 1075, (S)-8-chloro-6-(((2-chloro-3-cyanophenyl)(1-(1-(difluoromethyl)cyclopropyl)-1H-1,2,3-triazol-4-yl)methyl)amino)-4-(neopentylamino)quinoline-3-carbonitrile], in test [1], the EC50 is 185 nM. Also, in test [2], the IC50 came to 23 nM.

In the case of `Cc1cc(F)ccc1[C@H](Nc1cc(Cl)c2ncc(C#N)c(NCC(C)(C)C)c2c1)c1cn(C2(C(F)F)CC2)nn1` [Example 1076, (S)-8-chloro-6-(((1-(1-(difluoromethyl)cyclopropyl)-1H-1,2,3-triazol-4-yl)(4-fluoro-2-methylphenyl)methyl)amino)-4-(neopentylamino)quinoline-3-carbonitrile], in test [1], the EC50 amounted to 182 nM. Besides, the IC50 in test [2] is 37 nM.

Consider `Cc1c([C@H](Nc2cc(C#N)c3ncc(C#N)c(NCC(C)(C)C)c3c2)c2cn(C3(C(F)F)CC3)nn2)cccc1-n1ccnc1` [Example 1077], for which the EC50 in test [1] was 77 nM. Further, the IC50 in test [2] came to 2 nM.

Consider `[2H][C@](Nc1cc(C#N)c2ncc(C#N)c(NCC(C)(C)C)c2c1)(c1ccc(F)cc1)c1cn(Cc2c(F)cccc2F)nn1` [Example 1078, (S)-6-(((1-(2,6-difluorobenzyl)-1H-1,2,3-triazol-4-yl)(4-fluorophenyl)methyl-d)amino)-4-(neopentylamino)quinoline-3,8-dicarbonitrile], for which the EC50 in test [1] amounted to 175 nM. In test [2], the IC50 is 12 nM.

For `CC(C)(C)CNc1c(C#N)cnc2c(C#N)cc(N[C@H](c3cn(C4(C(F)(F)F)CC4)nn3)c3cccc(C#N)c3Cl)cc12` [Example 1079, (S)-6-(((2-chloro-3-cyanophenyl)(1-(1-(trifluoromethyl)cyclopropyl)-1H-1,2,3-triazol-4-yl)methyl)amino)-4-(neopentylamino)quinoline-3,8-dicarbonitrile], the EC50 in test [1] is 220 nM. Also, in test [2], the IC50 amounted to 19 nM.

In the case of `CC(C)(C)CNc1c(C#N)cnc2c(C#N)cc(N[C@H](c3cn(C4(C(F)F)CC4)nn3)c3cccc(C#N)c3Cl)cc12` [Example 1080, (S)-6-(((2-chloro-3-cyanophenyl)(1-(1-(difluoromethyl)cyclopropyl)-1H-1,2,3-triazol-4-yl)methyl)amino)-4-(neopentylamino)quinoline-3,8-dicarbonitrile], the EC50 in test [1] turned out to be 148 nM. Moreover, the IC50 in test [2] is 7 nM.

In the case of `Cc1c([C@H](Nc2cc(C#N)c3ncc(C#N)c(NCC(C)(C)C)c3c2)c2cn(C3(C(F)(F)F)CC3)nn2)cccc1-n1cnnn1` [Example 1081, (S)-6-(((2-methyl-3-(1H-tetrazol-1-yl)phenyl)(1-(1-(trifluoromethyl)cyclopropyl)-1H-1,2,3-triazol-4-yl)methyl)amino)-4-(neopentylamino)quinoline-3,8-dicarbonitrile], in test [1], the EC50 amounted to 219 nM. In test [2], the IC50 was determined as 3 nM.

Regarding `Cc1c([C@H](Nc2cc(C#N)c3ncc(C#N)c(NCC(C)(C)C)c3c2)c2cn(C3(C(F)F)CC3)nn2)cccc1-n1cnnn1` [Example 1082, (S)-6-(((1-(1-(difluoromethyl)cyclopropyl)-1H-1,2,3-triazol-4-yl)(2-methyl-3-(1H-tetrazol-1-yl)phenyl)methyl)amino)-4-(neopentylamino)quinoline-3,8-dicarbonitrile], the concentration for a half-maximal effect (EC50) in test [1] worked out at 262 nM. Besides, the IC50 in test [2] turned out to be 2 nM.

For the molecule `Cc1cc(F)ccc1[C@H](Nc1cc(C#N)c2ncc(C#N)c(NCC(C)(C)C)c2c1)c1cn(C2(C(F)F)CC2)nn1` [Example 1083, (S)-6-(((1-(1-(difluoromethyl)cyclopropyl)-1H-1,2,3-triazol-4-yl)(4-fluoro-2-methylphenyl)methyl)amino)-4-(neopentylamino)quinoline-3,8-dicarbonitrile], the EC50 in test [1] was determined as 63 nM. Moreover, in test [2], the IC50 stood at 13 nM.
